Measured values published in patent US20120316247A1, “PREVENTION AND TREATMENT OF POST-OPERATIVE COGNITIVE DYSFUNCTION (POCD)” (priority 2009, published 2012).
Where “and” joins values, the source holds several entries; their conditions need not be identical. Equal values may be shown once. Read-outs that look alike come from different tables or passages of the source.

Key:
[1] = system: primary neurons from naïve (C57BL/6) mice; conditions: propofol before 2% isoflurane, gestation day 15, FIG. 12
Procedure: (§1) To this end, H4 human neuroglioma cells stably transfected to express human full-length wild-type APP (H4-APP cells) in cell culture media with […] Aβ40, Aβ42 or Aβ40 plus Aβ42, were treated with an clinically relevant concentration of propofol (e.g., 100 μM) for one hour, and then with 2% isoflurane (plus 21% O2 and 5% CO2) for six hours. Wild-type H4 human neuroglioma cells (H4 naïve cells) and primary neurons from naïve (C57BL/6) mice were also used in the study for comparison. To obtain primary neurons, naïve (C57BL/6) mice with gestation stage of day 15 were euthanized with CO2. The primary neurons were harvested from the embyros. The harvested neurons were cultured for 7 to 10 days prior to treatment.
(§2) Anesthesia machine was used for the delivery of 2% isoflurane to the cells or neurons plated in a six well plate in a sealed plastic box located in a 37° C. incubator and Datex infrared gas analyzer was used for the monitoring (FIGS. 9A to 9C). The cells and the cell culture media were harvested at the end of the treatment. Caspase-3 activation and Aβ oligomerization were measured with quantitative Western blotting. Chemiluminescence signal from the western blot membranes was captured using a VersaDoc Imaging System and images were analyzed using Quantity One software (BioRad Hercules, Calif.).
(§3) Apoptosis is a programmed cell death requiring cysteine proteases called caspases, and caspase-3 activation is one of the final steps of apoptosis. Thus, a caspase-3 antibody (Cell Signaling, Danvers, Mass.) was used to recognize full-length (35 kDa), and the large fragment of cleaved caspase-3 (17-20 kDa).

H4-APP cells = system: H4-APP cells
Procedure: as §1, §2, §3

H4 naïve cells = conditions: propofol before 2% isoflurane, FIG. 11
Procedure: as §1, §2, §3

[2] = system: Aβ40 and Aβ42 oligomerization
Procedure: as §1, §2
In addition to the propofol effects on caspase-3 activation, its effects on Aβ oligomerization were assessed. H4-APP cell culture media were exposed to 2% isoflurane with and without 100 μM propofol for six hours. Antibody mAb 6E10 (1:3,000, Sigma) was used to detect Aβ40 and Aβ42 oligomerization.

[3] = Mortality of neonatal mice after sevoflurane anesthesia; type: in vivo; conditions: 6-day-old mice
Procedure: Naive mice (C57BL/6J mice [The JacksonLaboratory, Bar Harbor, Me.]) and Alzheimer's disease (AD) transgenic mice (B6.Cg-Tg[APPswe, PSEN1dE9]85 Dbo/J, [The Jackson Laboratory]) were distinguished by genotyping. All animals (3-12 mice per experiment) were 6 days old at the time of anesthesia and were randomized by weight and gender into experimental groups that received either 3 or 2.1% sevoflurane plus 60% oxygen for either 6 or 2 h, and control groups received 60% oxygen for 6 or 2 h at identical flow rates in identical anesthetizing chambers. […] The high concentration of sevoflurane anesthesia was used to illustrate the difference of sevoflurane-induced neurotoxicity between neonatal naïve and AD transgenic mice. […] Anesthetic and oxygen concentrations were measured continuously (Datex, Tewksbury, Mass.), and the temperature of the anesthetizing chamber was controlled to maintain the rectal temperature of the mice at 37°±0.5° C.

[4] = system: TUNEL-positive cells (apoptosis) in the brain tissues; assay: TUNEL staining of brain sections of neonatal mice; type: in vivo; conditions: 3% sevoflurane plus 60% oxygen for 6 h, FIG. 5B
Procedure: Terminal Deoxynucleotidyl Transferase dUTP Nick End Labeling Staining Assay. […] The mouse brain tissues were removed and exposed to immersion fixation for 24 h at 4° C. in 4% paraformaldehyde, and then 5-μm paraffin-embedded sections were made from the brain tissues. TMRred kit (Roche, Palo Alto, Calif.) was used for terminal deoxynucleotidyl transferase dUTP nick end labeling (TUNEL) staining. Briefly, the brain sections were incubated in a permeabilization solution and then incubated with a TUNEL reaction mixture. Finally, the sections were incubated with 10 μg/ml Hoechst 33342 in a humidified dark chamber. The sections from the same brain areas between control group mice and the sevoflurane-treated mice were then analyzed in a mounting medium under a fluorescence microscope. The TUNEL-positive cells and total cells in five areas of the brain section from each of the mice in the experiments were counted blind-fold under a 20× objective microscope lens. For the double immunocytochemistry staining to identify the cell type of the TUNEL-positive cells, the mouse brain tissues were quickly removed after sevoflurane anesthesia, put into a container with dry ice and ethanol, and then kept in a −80° C. freezer. Five-micrometer frozen sections were cut using a cryostat. […] Finally, the sections were mounted and immediately viewed using a fluorescence microscope.
(§4) Data were expressed as mean±SD.

[5] = system: amyloid precursor protein (APP); conditions: mouse, in vivo
Excerpt: (§5) The animal protocol was approved by the Standing Committee on Animals at Massachusetts General Hospital (Boston, Mass.). Naive mice (C57BL/6J mice [The JacksonLaboratory, Bar Harbor, Me.]) and Alzheimer's disease (AD) transgenic mice (B6.Cg-Tg[APPswe, PSEN1dE9]85 Dbo/J, [The Jackson Laboratory]) were distinguished by genotyping. All animals (3-12 mice per experiment) were 6 days old at the time of anesthesia and were randomized by weight and gender into experimental groups that received either 3 or 2.1% sevoflurane plus 60% oxygen for either 6 or 2 h, and control groups received 60% oxygen for 6 or 2 h at identical flow rates in identical anesthetizing chambers. […] Anesthetic and oxygen concentrations were measured continuously (Datex, Tewksbury, Mass.), and the temperature of the anesthetizing chamber was controlled to maintain the rectal temperature of the mice at 37°±0.5° C. In the interaction studies, the inositol trisphosphate receptor (IP3R) antagonist 2-aminoethoxydiphenyl borate (2-APB) (5 and 10 mg/kg) was administered to the mice via intraperitoneal injection 10 min before the anesthetic was administered. 2-APB was first dissolved in dimethyl sulfoxide to 20 μg/μl and then diluted with saline to 0.25 μg/μl (1:80 dilution) and to 0.5 μg/μl (1:40 dilution).
(§6) Immediately after sevoflurane anesthesia, the mouse was decapitated, and the brain cortex was harvested. The brain tissues were homogenized in an immunoprecipitation buffer (10 mM Tris-HCl, pH 7.4, 150 mM NaCl, 2 mM ethylenediaminetetraacetic acid, and 0.5% Nonidet P-40) plus protease inhibitors ([1 μg/ml aprotinin, 1 μg/ml leupeptin, and 1 μg/ml pepstatin A]; [Roche, Indianapolis, Ind.]). The lysates were collected, centrifuged at 13,000 rpm for 15 min, and quantified for total proteins by using the bicinchoninic acid protein assay kit (Pierce, Iselin, N.J.).
(§7) The harvested brain tissues were subjected to Western blots as described by Xie et al. (16). Briefly, 60 μg of each lysate was separated on sodium dodecyl sulfate polyacrylamide gel electrophoresis gels and transferred to polyvinylidene difluoride blots (Bio-Rad, Hercules, Calif.) using a semidry electrotransfer system (Amersham Biosciences, San Francisco, Calif.). The blot was incubated overnight at 4° C. with primary antibodies, followed by washes and incubation with appropriate secondary antibodies, and visualized with a chemoluminescence system. A caspase-3 antibody (1:1,000 dilution; Cell Signaling Technology, Danvers, Mass.) was used to recognize the caspase-3 fragment (17-20 kDa) resulting from cleavage at aspartate position 175 and fulllength (FL) caspase-3 (35-40 kDa). TNF-α levels were recognized by antibody ab6671 (26 kDa; 1:1,000; Abcam, Cambridge, Mass.). The antibody to nontargeted protein β-actin was used to control for loading differences in total protein amounts. The figures showing blots with only the caspase-3 fragment are the same Western blots with extended exposure time during the development of the film. The signal of the Western blot band was detected using Molecular Imager VersaDoc MP 5000 System (Bio-Rad). The intensity of signals was analyzed using a Bio-Rad image program (Quantity One) and a National Institutes of Health Image Version 1.37 (National Institutes of Health, Bethesda, Md.). Western blots were quantified using two steps. First, levels of β-actin was used to normalize (e.g., determining the ratio of FL caspase-3 amount to β-actin amount) the levels of proteins to control for loading differences in total protein amounts.

caspase-3 = conditions: for caspase-3 activation, fold of control (1-fold): 3% sevoflurane for 6 h, FIG. 4B; for sevoflurane-induced caspase-3 activation, percentage of control (100%): sevoflurane alone 356%
Excerpt: as §5, §6, §7

[6] = system: apoptosis in the developing rat brain; conditions: intraventricular injection, Wei and Xie, 6 Curr. Alzheimer Res. 30 (2009); cited from earlier work
Aβ = conditions: 2-APB (10 mg/kg, FIG. 7D) before 3% sevoflurane for 6 h; neonatal naïve mice; sevoflurane alone 304%; P=0.042
Excerpt: as §5, §4

## CC(C)c1cccc(C(C)C)c1O [propofol, 2,6-diisopropylphenol]
[1]
  effect on isoflurane-induced caspase-3 activation: did not attenuate
H4-APP cells; 100 μM propofol for one hour prior to 2% isoflurane for six hours, H4-APP cells, FIG. 10
  effect on isoflurane-induced caspase-3 activation: attenuated isoflurane-induced caspase-3 activation
H4-APP cells; propofol alone, no isoflurane
  caspase-3 activation by propofol alone: did not induce
H4 naïve cells
  effect on isoflurane-induced caspase-3 activation: did not attenuate
[2]; 100 μM propofol for one hour prior to 2% isoflurane, H4-APP cells, FIG. 14B
  effect on isoflurane-induced Aβ40 (oligomerization): attenuated
[2]; 100 μM propofol for one hour prior to 2% isoflurane, H4-APP cells, FIG. 14C
  effect on isoflurane-induced Aβ42 (oligomerization): attenuated
[2]; propofol alone, no isoflurane
  Aβ oligomerization by propofol alone: did not induce

## FCOC(C(F)(F)F)C(F)(F)F [sevoflurane]
[3]; 2.1% sevoflurane
  death of the mice: did not cause the death of the mice
[3]; 3% sevoflurane plus 60% oxygen for 6 h
  mortality rate of the mice: 10-15%
[4]; neonatal AD transgenic mice
  TUNEL-positive cells (apoptosis), fold of control (1-fold): 2.13 fold and 2.45 fold
[4]; neonatal naïve mice, P=0.001
  TUNEL-positive cells (apoptosis), fold of control (1-fold): 2.08 fold
[5]
  decrease in the ratio of APP-C83 to APP-FL compared with control: 45%
  decrease in the ratio of APP-C99 to APP-FL compared with control: 33%
caspase-3; 2.1% sevoflurane for 6 h, neonatal AD transgenic mice, FIG. 2D, P=0.045
  caspase-3 activation, percentage of control (100%): 178%
caspase-3; 2.1% sevoflurane for 6 h, neonatal naïve mice, FIG. 2B, P=0.002
  caspase-3 activation, percentage of control (100%): 183%
caspase-3; 3% sevoflurane for 2 h, neonatal naïve mice, FIG. 3B, P=0.074 (did not increase)
  caspase-3 activation, percentage of control (100%): 128%
caspase-3; neonatal AD transgenic mice
  caspase-3 activation, fold of control (1-fold): 2.45 fold and 2.13 fold
caspase-3; neonatal naïve mice, P=0.003
  caspase-3 activation, fold of control (1-fold): 1.48 fold
caspase-3; 3% sevoflurane for 6 h alone, neonatal naïve mice, 2-APB interaction study, FIG. 7B, P=0.002
  caspase-3 activation, percentage of control (100%): 356%
caspase-3; 3% sevoflurane plus 60% oxygen for 6 h, 6-day-old neonatal naïve mice, FIG. 1B, P=0.009
  increase in caspase-3 cleavage (activation), ratio of cleaved caspase-3 fragment to FL-caspase-3, compared with control: 242%

## C1CCC[C@H]2CCCN3CC[C@@H](CCCCCC[C@@H]4CCCN5CC[C@@H](CC1)O[C@@H]45)O[C@@H]23 [xestospongin C]
[6]
  effect on isoflurane-induced apoptosis: inhibits isoflurane-induced apoptosis

## NCCOB(c1ccccc1)c1ccccc1 [2-APB, 2-aminoethoxydiphenyl borate]
Aβ
  sevoflurane-induced increase in Aβ levels, percentage of control: 157%
caspase-3; 5 mg/kg 2-APB i.p. 10 min before 3% sevoflurane for 6 h, neonatal naïve mice, P=0.001
  sevoflurane-induced caspase-3 activation, percentage of control (100%): 149%
caspase-3; 10 mg/kg 2-APB i.p. 10 min before 3% sevoflurane for 6 h, neonatal naïve mice, P=0.005
  sevoflurane-induced caspase-3 activation, percentage of control (100%): 115%
